From US12533339B2, “Small molecule antiviral drug treatment for human papillomavirus infections” (THE TRUSTEES OF INDIANA UNIVERSITY, priority 2020, dated 2026)
Read-outs that look alike come from different tables or passages of the source.

Columns and labels:
E6 WT/E6AP [1] = biological target: T1, E6 WT/E6AP (Human papillomavirus type 16, UniProt P03126); experiment: biochemical; type: binding; details: for Emax: 24 h, read-out: FP maximal inhibition (max %) E6 WT/E6AP
RPE-1 cells = experiment: Colony formation, crystal violet absorbance at 590 nm; type: cell-based; details: RPE-1 cells (no HPV), 14 days, normalized to DMSO, FIG. 6
Procedure: FIG. 6 depicts colony formation capabilities of SiHa, CaSki or RPE-1 cells in the presence of the indicated concentrations of EIN-166. Fifty cells were seeded and incubated with DMSO or EIN-166. After 14 days, cells were fixed and stained with crystal violet. Stained colonies were dissolved and absorbance at 590 nm was measured. Treatments were normalized to DMSO. Data expressed as S.E.M and *P<0.05 (n=3).

E6 WT/E6AP [2] = biological target: T1, E6 WT/E6AP; experiment: biochemical; type: binding; details: for Emax: at 24 h, E6 WT, read-out: BLI maximal Inhibition (max %) E6 WT/E6AP
E6C51S/E6AP [3] = biological target: T2, E6C51S/E6AP (Human papillomavirus type 16, UniProt P03126, C58S); experiment: E6/E6AP binding assay (amylose-bound MBP-16E6, E6AP-BAP activity), C51S 16E6; set-up: species or system HPV-16; details: for % Inhibition @ 10 μM E6C51S/E6AP: 10 μM compound; for % Inhibition @ 100 μM E6C51S/E6AP: 100 μM compound
T2 sequence (P03126 whole entry C58S, looked up): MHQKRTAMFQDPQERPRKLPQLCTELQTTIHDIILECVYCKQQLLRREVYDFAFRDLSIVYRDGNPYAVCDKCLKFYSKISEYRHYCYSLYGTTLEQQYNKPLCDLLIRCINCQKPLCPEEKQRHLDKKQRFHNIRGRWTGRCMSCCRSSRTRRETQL

E6C51S/E6AP [4] = biological target: T2, E6C51S/E6AP; experiment: BLI binding assay, E6 C51S binding to captured E6AP; set-up: species or system HPV-16; details: for BLI maximal Inhibition (max %) E6C51S/E6AP: at 24 h, E6 C51S
E6 WT/E6AP [5] = biological target: T1, E6 WT/E6AP; experiment: biochemical; type: binding; details: WT 16E6; for inhibition at 10 µM: 10 μM compound; for inhibition at 100 µM: 100 μM compound
E6C51S/E6AP [6] = biological target: T2, E6C51S/E6AP; experiment: Fluorescence Polarization (FP) assay, MBP-E6 C51S with labeled peptide; type: binding, HPV-16; details: at 24 h
wild-type E6 = wild-type E6 (Human papillomavirus type 16, UniProt P03126); type: binding; details: 100 μM for 16 hr at 4° C., FIG. 1A top
wild-type E6, sequence (P03126 8-158): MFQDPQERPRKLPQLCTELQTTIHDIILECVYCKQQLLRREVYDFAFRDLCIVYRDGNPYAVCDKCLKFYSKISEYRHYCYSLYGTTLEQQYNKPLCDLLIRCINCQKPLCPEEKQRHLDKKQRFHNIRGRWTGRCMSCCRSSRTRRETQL

E6 Cys51Ser mutant = E6 Cys51Ser mutant (Human papillomavirus type 16, UniProt P03126, C58S); experiment: Whole protein ESI mass spectrometry, adduct with E6 Cys51Ser mutant; type: binding, HPV-16; details: 100 μM for 16 hr at 4° C., FIG. 1A bottom
E6 Cys51Ser mutant, sequence (P03126 8-158 C58S): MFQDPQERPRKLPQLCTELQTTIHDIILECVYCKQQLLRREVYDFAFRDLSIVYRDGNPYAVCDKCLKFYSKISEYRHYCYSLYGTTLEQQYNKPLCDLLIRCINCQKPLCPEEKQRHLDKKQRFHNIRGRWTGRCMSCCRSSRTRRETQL

T1 sequence (P03126 8-158): as the sequence (P03126 8-158) above

With `C=CC(=O)N1CCN(C(=O)CN2CCc3ccccc3C2c2ccccc2C)CC1` (stereo not drawn) [EIN-166, 1-(4-(2-(1-(o-tolyl)-3,4-dihydroisoquinolin-2(1H)-yl)acetyl)piperazin-1-yl)prop-2-en-1-one] the Emax (E6 WT/E6AP [1]) was 100%, the IC50 (E6 WT/E6AP [1]; FP IC50 at 24 h (μM) E6 WT/E6AP) was 73.4 ± 3.7 µM and the colony formation capability (RPE-1 cells) was “no significant changes”.
With `C=CC(=O)N1CCN(c2nc(Cc3ccc(F)cc3)nc3sc4c(c23)CCCC4)CC1` [EIN-146, 1-(4-(2-(4-fluorobenzyl)-5,6,7,8-tetrahydrobenzo[4,5]thieno[2,3-d]pyrimidin-4-yl)piperazin-1-yl)prop-2-en-1-one] the Emax (E6 WT/E6AP [2]) was 100%, the Emax (E6 WT/E6AP [1]) was 20% and the “% Inhibition @ 10 μM E6C51S/E6AP” value (E6C51S/E6AP [3]) was 11 ± 7%. For the same molecule, the “% Inhibition @ 100 μM E6C51S/E6AP” value (E6C51S/E6AP [3]) was 15 ± 8%, the “BLI maximal Inhibition (max %) E6C51S/E6AP” value (E6C51S/E6AP [4]) was “(max 100%)” and the inhibition at 10 µM (E6 WT/E6AP [5]) was 16 ± 4%. The inhibition at 100 µM (E6 WT/E6AP [5]) was 30 ± 3%.
`C=CC(=O)N1CCN(c2nc(CCc3cccc(OC)c3)nc3sccc23)CC1` [EIN-152, 1-(4-(2-(3-methoxyphenethyl)thieno[2,3-d]pyrimidin-4-yl)piperazin-1-yl)prop-2-en-1-one] was tested, and the Emax (E6 WT/E6AP [2]) was 100%, the Emax (E6 WT/E6AP [1]) was 98% and the “FP maximal inhibition (max %) E6C51S/E6AP” value (E6C51S/E6AP [6]) was “(max 100%)”. The “BLI maximal Inhibition (max %) E6C51S/E6AP” value (E6C51S/E6AP [4]) was “(max 60%)”.
In the case of `C=CC(=O)N1CCN(c2nc(CCc3cccc(OC)c3)nc3sc4c(c23)CCCCC4)CC1` [EIN-150, 1-(4-(2-(3-methoxyphenethyl)-6,7,8,9-tetrahydro-5H-cyclohepta[4,5]thieno[2,3-d]pyrimidin-4-yl)piperazin-1-yl)prop-2-en-1-one], the Emax (E6 WT/E6AP [2]) is reported as 100%, the Emax (E6 WT/E6AP [1]) is reported as 57% and the “BLI maximal Inhibition (max %) E6C51S/E6AP” value (E6C51S/E6AP [4]) is reported as “(max 100%)”.
With `Cc1ccccc1C1c2ccsc2CCN1CC(=O)N1CCCN(C(=O)CCl)CC1` (stereo not drawn) [EIN-116, 2-chloro-1-(4-(2-(4-(o-tolyl)-6,7-dihydrothieno[3,2-c]pyridin-5(4H)-yl)acetyl)-1,4-diazepan-1-yl)ethan-1-one] the “inhibition of E6 binding to E6AP (BLI), in words” value (E6 WT/E6AP [2]; E6 WT with increasing concentration of compound) was “inhibited E6 binding to E6AP in a concentration-dependent manner”, the Emax (E6 WT/E6AP [2]) was 100% and the “adduct formation with wild-type E6” value (wild-type E6) was “formed an adduct”. For the same molecule, the “% Inhibition @ 10 μM E6C51S/E6AP” value (E6C51S/E6AP [3]) was 5 ± 5%, the “% Inhibition @ 100 μM E6C51S/E6AP” value (E6C51S/E6AP [3]) was 36 ± 11% and the “adduct formation with E6 Cys51Ser mutant” value (E6 Cys51Ser mutant) was “not with E6 Cys51Ser mutant”. For the same molecule, the “loss of ability to inhibit mutant form E6-Cys51Ser (BLI), in words” value (E6C51S/E6AP [4]; FIG. 1B, E6-Cys51Ser) was “partly”, the “BLI maximal Inhibition (max %) E6C51S/E6AP” value (E6C51S/E6AP [4]) was “(max 100%)” and the inhibition at 10 µM (E6 WT/E6AP [5]) was 29 ± 8%. It also gave an inhibition at 100 µM (E6 WT/E6AP [5]) of 74 ± 3%.
For `COc1cccc(CCc2nc(N3CCN(C(=O)/C=C/CN(C)C)CC3)c3ccccc3n2)c1` [EIN-155, (E)-4-(dimethylamino)-1-(4-(2-(3-methoxyphenethyl)quinazolin-4-yl)piperazin-1-yl)but-2-en-1-one], the Emax (E6 WT/E6AP [2]) was 100%, the Emax (E6 WT/E6AP [1]) was 100% and the “BLI maximal Inhibition (max %) E6C51S/E6AP” value (E6C51S/E6AP [4]) was “(max 100%)”.
